Values joined by “and” are separate entries in the source; they are usually repeats but may differ in a detail not shown here. Equal entries are not always repeated.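 The compound was tested at five concentrations on cells cultured in 96-well plates, with a 48-hour exposure period. The concentration for 50% growth inhibition is given as GI50. The concentration for full growth arrest is given as TGI.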
Legend:
Test in all cases: DTP human tumour cell line panel, 48 h
EKVX NSCLC = system: EKVX NSCLC
HCC-2998 colon = system: HCC-2998 colon
HCT-15 colon = system: HCT-15 colon
IGROV1 ovarian = system: IGROV1 ovarian
LOX IMVI melanoma = system: LOX IMVI melanoma
MALME-3M melanoma = system: MALME-3M melanoma
SNB-75 CNS = system: SNB-75 CNS
SR leukemia = system: SR leukemia
786-0 renal = system: 786-0 renal
NCI-H23 lung = system: NCI-H23 lung

Structure (SMILES) | TGI (EKVX NSCLC) | TGI (HCC-2998 colon) | TGI (HCT-15 colon) | TGI (IGROV1 ovarian) | TGI (LOX IMVI melanoma) | TGI (MALME-3M melanoma) | TGI (SNB-75 CNS) | TGI (SR leukemia) | TGI (786-0 renal) | TGI (NCI-H23 lung) | GI50 (EKVX NSCLC) | GI50 (HCC-2998 colon) | GI50 (HCT-15 colon) | GI50 (IGROV1 ovarian) | GI50 (LOX IMVI melanoma) | GI50 (MALME-3M melanoma) | GI50 (NCI-H23 lung) | GI50 (SNB-75 CNS)
Cn1c(=O)n(CC2CS2)c2ccccc21 (stereo unspecified) | > 100 µM | > 100 µM | > 100 µM | > 100 µM | > 100 µM | > 100 µM | > 100 µM | > 100 µM | – | – | – | – | – | – | – | – | – | –
O=C1c2ccccc2C(=O)c2nn(N=P(CP(=Nn3nc4c(n3)C(=O)c3ccccc3C4=O)(c3ccccc3)c3ccccc3)(c3ccccc3)c3ccccc3)nc21 | > 100 µM | > 100 µM | > 100 µM | > 100 µM | > 100 µM | > 100 µM | – | > 100 µM | > 100 µM | > 100 µM | – | – | – | – | – | – | – | –
O=c1oc2cccnc2n1CCCCN1CCN(c2ccccc2)CC1 | > 100 µM | > 100 µM | > 100 µM | > 100 µM | > 100 µM | > 100 µM | – | > 100 µM | > 100 µM | > 100 µM | – | – | – | – | – | – | – | –
NC1c2c(Cl)sc(Cl)c2C(=O)C1O (stereo unspecified) | 57.6 µM | 30.7 µM | 30.1 µM | > 100 µM | 47.3 µM | 82.4 µM | > 100 µM | – | > 100 µM | 32.5 µM | – | – | – | – | – | – | – | –
COC(=O)/C=c1/c2ccccc2n2c1c1ccccc1[n+]2C | 7.79 µM | 5.75 µM | 33.1 µM | 20.9 µM | 27.9 µM | 6.74 µM | 8.44 µM | – | 14.9 µM | 11.4 µM | – | – | – | – | – | – | – | –
COc1cc2oc(-c3ccc4c(c3)OCO4)c(OC)c(=O)c2c(O)c1OC | > 50 µM | > 50 µM | > 50 µM | > 50 µM | > 50 µM | > 50 µM | > 50 µM | – | > 50 µM | > 50 µM | – | – | – | – | – | – | – | –
Cn1c2ccc(C3=NCCN3)cc2c2cc(C3=NCCN3)ccc21 | > 100 µM | – | > 100 µM | > 100 µM | > 100 µM | 61 µM | > 100 µM | > 100 µM | > 100 µM | > 100 µM | – | – | – | – | – | – | – | –
COc1cc2oc(=O)cc(C)c2cc1OC | > 100 µM | – | > 100 µM | > 100 µM | > 100 µM | > 100 µM | > 100 µM | > 100 µM | > 100 µM | > 100 µM | – | – | – | – | – | – | – | –
N#C/C(C(=O)Nc1ccccc1)=C(/N)N1CCCCC1 | > 100 µM | > 100 µM | > 100 µM | > 100 µM | > 100 µM | – | > 100 µM | > 100 µM | > 100 µM | > 100 µM | – | – | – | – | – | – | – | –
CCOC(=O)CCC(NC(=O)OCc1ccccc1)C(=O)NC(CCC(=O)OCC)C(=O)NC(CCC(=O)OCC)C(=O)NNC(=O)OC(C)(C)C (stereo unspecified) | > 100 µM | > 100 µM | > 100 µM | > 100 µM | – | > 100 µM | > 100 µM | > 100 µM | > 100 µM | > 100 µM | – | – | – | – | – | – | – | –
N#Cc1c(N2CCN(c3ccc([N+](=O)[O-])cc3)CC2)[n+](=O)c2ccc(-c3ccc([N+](=O)[O-])cc3)cc2n1[O-] | > 100 µM | > 57.3 µM | > 100 µM | > 77.8 µM | > 100 µM | > 100 µM | > 100 µM | – | > 100 µM | > 100 µM | – | – | – | – | – | – | – | –
CC(C)(C)C(=O)N1CCN(C=O)C1=S | > 100 µM | > 100 µM | > 100 µM | > 100 µM | > 100 µM | > 100 µM | 90.6 µM | – | > 100 µM | > 100 µM | – | – | – | – | – | – | – | –
C=CCc1ccccc1C1CC2(C(=O)OC)OC1C(C(=O)OC)=C2C(=O)OC (stereo unspecified) | > 10 µM | > 10 µM | > 10 µM | > 10 µM | > 10 µM | > 10 µM | – | > 10 µM | > 10 µM | > 10 µM | – | – | – | – | – | – | – | –
CCN(CCCl)c1cccc(NC(=O)c2ccc(C(=O)Nc3cccc(CN(C)C)c3)cc2)c1 | – | 0.368 µM | 6.58 µM | 1.13 µM | 0.177 µM | 0.166 µM | 0.759 µM | 27.3 µM | – | 1.15 µM | – | – | – | – | – | – | – | –
COC1(OC)C=CC(=O)C=C1 | 21.9 µM | 15.4 µM | 16.9 µM | 4.77 µM | 2.91 µM | – | 26.9 µM | > 100 µM | 4.55 µM | 10.6 µM | – | – | – | – | – | – | – | –
COc1cc(C)cc2c(-c3c(O)cc(O)c4c3C[C@H](C)N[C@H]4C)cc(-c3cc(-c4c(O)cc(O)c5c4C[C@H](C)N[C@H]5C)c4cc(C)cc(OC)c4c3O)c(O)c12 | > 100 µM | > 100 µM | > 100 µM | > 100 µM | – | > 100 µM | > 100 µM | > 100 µM | > 100 µM | > 100 µM | – | – | – | – | – | – | – | –
O=[N+]([O-])c1ccc2nc(/C=C(\O)c3ccc(Cl)cc3)c(/C=C(\O)c3ccc(Cl)cc3)nc2c1 | > 100 µM | > 100 µM | > 100 µM | > 100 µM | – | > 100 µM | > 100 µM | > 100 µM | > 100 µM | > 100 µM | – | – | – | – | – | – | – | –
CC(=Nc1cc(Cl)cc(Cl)c1)c1ccncc1 | > 100 µM | > 100 µM | > 100 µM | > 100 µM | > 100 µM | > 100 µM | > 100 µM | – | > 100 µM | > 100 µM | – | – | – | – | – | – | – | –
CCC1(OC(=O)CN)C(=O)OCc2c1cc1n(c2=O)Cc2cc3cc4c(cc3nc2-1)OCO4 (stereo unspecified) | 0.495 µM | 1.08 µM | 26.8 µM and 10.2 µM | 1.55 µM and 0.527 µM | 0.155 µM and 0.106 µM | 1.42 µM | – | – | – | 0.119 µM and 0.0337 µM | 0.0106 µM | 0.101 µM | 0.126 µM and 0.0483 µM | 0.0975 µM and 0.0367 µM | < 0.01 µM | 0.287 µM | < 0.01 µM | 0.0207 µM and < 0.01 µM
C=C(CCOC)CCC1CCCCC(=C)[C@H]1O (stereo partly specified) | > 100 µM | – | > 100 µM | > 100 µM | – | – | > 100 µM | > 100 µM | > 100 µM | > 100 µM | – | – | – | – | – | – | – | –
C[PH+](c1nc2ccccc2nc1[PH+](C)C(C)(C)C)C(C)(C)C.C[PH+](c1nc2ccccc2nc1[PH+](C)C(C)(C)C)C(C)(C)C.[Au+].[Cl-] (stereo unspecified) | – | 0.302 µM | – | – | 0.155 µM | 0.0811 µM | 1.34 µM | – | – | 0.104 µM | – | 0.0296 µM | – | – | 0.0396 µM | 0.0263 µM | 0.0261 µM | 0.0224 µM
CCOC(=O)c1c(N)sc2c1C(C(=O)OCC)CCC2 (stereo unspecified) | > 100 µM | > 100 µM | > 100 µM | > 100 µM | – | > 100 µM | > 100 µM | > 100 µM | > 100 µM | > 100 µM | – | – | – | – | – | – | – | –
